According to patent publication EP2340832A1, “Morphinan-6-one compounds for the treatment or prevention of neurodegenerative diseases” (Universität Innsbruck, priority 2009, dated 2011):
Like-named read-outs stand apart in the source and are kept apart here.

What was measured:
[1] = system: frontal cortex synaptosomes; experiment: ACh release from synaptosomes (15 mM K+-evoked [3H]-ACh release, superfusion); type: cell-based, male Sprague Dawley rats
Procedure: Preparation of synaptosomes: synaptosomes were prepared from brain frontal cortex of male Sprague Dawley rats (4 months old). The frontal cortex was rapidly dissected on ice and homogenized in 40 volumes of 0.32 M sucrose buffered at pH 7.4 with 0.01 M sodium phosphate. The homogenate was centrifuged at 1,000 g for 5 min. The crude synaptosomal pellet was obtained by centrifugation of the supernatant at 15,000 g for 20 min and was resuspended in 5 ml basal medium (125 mM Nacl, 3 mM KCI, 1.2 mM MgS04, 1.2 mM CaCl2, 1.0 mM NaH2PO4, 22 mM NaHCO3 and 10 mM glucose) which had been gassed with 95% O2 - 5% CO2 at 37 °C, pH 7.2 - 7.4.
Superfusion protocol: The synaptosomal suspension was incubated with [^3H]-choline (0.03 µM, 17.5x10^6 Bq/g) for 15 min at 37 °C. Then, the suspension was diluted (1:8) and aliquots were applied on filters in a continuous superfusion system with parallel chambers maintained at 37 °C. The media used for superfusion were basal medium and 15 mM K^+-containing stimulation medium. Both media were supplemented with ACh (1 µM) to facilitate the effectiveness of an allosteric potentiating ligand at the nicotine receptor and with atropine (0.1 µM) to block M2 presynaptic receptors. Synaptosomes were superfused with basal medium for 30 min to reach a constant outflow of [^3H]-ACh. Under these experimental conditions, the radioactivity released consisted largely of newly synthesized [^3H]-ACh. The K^+-stimulated release of [^3H]-ACh was determined in 2 subsequently collected fractions: 6 min basal release (superfusion with basal medium) and 6 min K^+-evoked release (superfusion for 1.5 min with 15 mM K^+-containing medium followed by […] basal medium). The test compounds galantamine, 4 and 2 were present in the superfusion medium concomitantly with 15 mM K^+ (for 1.5 min). Basal release of [^3H]-ACh (continuous superfusion with basal medium) was determined by collection of a 6 min sample followed by four subsequent 2 min samples. Aliquots of samples were mixed with scintillation liquid and the radioactivity quantified with a scintillation counter. The radioactivity bound to the filters was also measured.
Statistical analysis: The amount of [^3H]-ACh released in each sample was calculated as fraction of total synaptosomal tritium at the start of the respective collection period (tritium in the sample / sum of tritium in the respective fractions and in the synaptosomes on the filter). K^+-evoked release was expressed as percentage of basal release rate. Each n=1 represents the mean of an experiment with one synaptosomal preparation in at least 3 superfusion chambers. Statistical significance of group variances was calculated by one way ANOVA followed by Bonferroni's test.

[2] = molecular target: T1, electric eel AChE (EC 3.1.1.7) (Electrophorus electricus, UniProt O42275); experiment: Spectrophotometric assay for AChE inhibitory activity (modified Ellman's method); type: biochemical; conditions: 96-well microplate, 1% DMSO; read-out: AChE inhibitory activity IC50
T1 construct: purchased Sigma-Aldrich, Germany

δ opioid receptors = molecular target: T2, δ opioid receptors (Rattus norvegicus, UniProt P33533); experiment: Opioid receptor binding assay, [3H][Ile5,6]deltorphin II, rat brain membranes; set-up: species or system Sprague-Dawley rat
T2 construct: Membrane fractions were prepared from Sprague-Dawley rat or guinea pig brains; from tissue; host or cells: Sprague-Dawley rat brain (without cerebella) membranes

[3] = molecular target: T3, σ receptors labelled by [^3H](+)-pentazocine (σ1) (Cavia porcellus, UniProt Q60492); experiment: Sigma receptor binding assay, [3H](+)-pentazocine; set-up: species or system guinea pig
T3 construct: from tissue; host or cells: guinea pig brain membranes
Procedure: Filters were washed three times with 5 ml of ice-cold 10 mM Tris-HCI buffer (pH 8). The bound radioactivity was measured by liquid scintillation counting (Beckman Coulter™ LS6500). […] The values are expressed as the mean ± S.E.M of 2 - 4 independent experiments, each performed in duplicate.

C57BL/6N female mice [4] = experiment: Open field (locomotor activity); type: in vivo; conditions: for general locomotion in the open field (move distance, move time): 10 min
Excerpt: Each mouse was used only once. […] . […] Thereafter it was replaced by the obturator.
The open field consisted of a transparent plastic box with white floor (41 x 41 x 41 cm) equipped with an automated activity monitoring system (True Scan, Coulbourn Instruments, Allentown, Pennsylvania, USA). The illumination at floor level was 150 lux. Mice were individually placed into the centre of the open field and their behaviours were tracked with the activity monitoring system. The time of locomotor activity, the overall distance travelled by the mice and the fraction of locomotor activity in the center area (center distance and center time) were monitored for 10 min. The arena was thoroughly cleaned with wet paper towels and dried at the end of each test.
Statistical analysis: All data from behavioural studies are shown as mean ± SEM. Statistical analysis was performed using the analysis of variance (ANOVA), followed by post hoc multiple comparisons Tukey-Kramer test, except comparison of alternation rates with the theoretical value of chance (defined as 50%) which was evaluated by Wilcoxon signed rank test. All statistical analyses were carried out by using the Graphpad Prism Program, version 4.0, Graphpad software, Inc.

C57BL/6N female mice [5] = experiment: Object recognition task; conditions: for object recognition (memory): normal mice; for effect on scopolamine-induced impairment of object recognition: scopolamine-pretreated mice
C57BL/6N female mice [6] = experiment: T-maze continuous alternation; conditions: for spontaneous alternation rate: normal mice
[7] = scopolamine 0.033 µmol, compound 0.01 and 0.1 µmol i.c.v.

T2 sequence (P33533 whole entry): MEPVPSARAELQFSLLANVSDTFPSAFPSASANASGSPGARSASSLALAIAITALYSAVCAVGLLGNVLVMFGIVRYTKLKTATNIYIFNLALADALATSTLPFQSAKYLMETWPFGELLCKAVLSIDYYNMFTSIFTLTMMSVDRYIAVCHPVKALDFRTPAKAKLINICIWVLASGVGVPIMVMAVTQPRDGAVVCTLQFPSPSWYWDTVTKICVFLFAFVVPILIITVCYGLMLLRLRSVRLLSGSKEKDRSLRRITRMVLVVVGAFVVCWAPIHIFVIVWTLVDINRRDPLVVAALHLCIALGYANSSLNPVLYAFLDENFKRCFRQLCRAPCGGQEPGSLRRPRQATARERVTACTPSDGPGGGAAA
T3 sequence (Q60492 whole entry): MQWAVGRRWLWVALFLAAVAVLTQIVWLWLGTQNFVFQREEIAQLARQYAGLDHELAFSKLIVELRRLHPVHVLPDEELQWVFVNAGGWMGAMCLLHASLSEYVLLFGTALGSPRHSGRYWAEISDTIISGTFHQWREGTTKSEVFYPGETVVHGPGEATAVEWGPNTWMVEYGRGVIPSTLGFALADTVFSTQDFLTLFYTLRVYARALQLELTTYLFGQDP
T1 sequence (O42275 24-633): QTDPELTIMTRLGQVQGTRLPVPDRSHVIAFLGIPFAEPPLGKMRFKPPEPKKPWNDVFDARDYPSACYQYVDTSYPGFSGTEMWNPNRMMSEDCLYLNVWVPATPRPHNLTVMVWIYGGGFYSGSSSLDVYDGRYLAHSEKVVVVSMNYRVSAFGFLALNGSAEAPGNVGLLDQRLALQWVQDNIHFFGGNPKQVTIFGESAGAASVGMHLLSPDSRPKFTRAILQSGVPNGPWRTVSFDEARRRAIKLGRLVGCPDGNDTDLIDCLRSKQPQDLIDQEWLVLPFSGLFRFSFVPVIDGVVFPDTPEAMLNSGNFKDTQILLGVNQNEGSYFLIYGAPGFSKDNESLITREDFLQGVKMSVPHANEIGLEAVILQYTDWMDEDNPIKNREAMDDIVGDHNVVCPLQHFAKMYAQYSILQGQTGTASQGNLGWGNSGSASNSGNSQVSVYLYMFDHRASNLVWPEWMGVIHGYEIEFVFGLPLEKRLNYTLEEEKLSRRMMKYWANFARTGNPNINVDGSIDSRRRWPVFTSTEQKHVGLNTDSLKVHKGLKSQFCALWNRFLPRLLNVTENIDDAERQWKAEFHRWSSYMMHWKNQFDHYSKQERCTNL

**Q.** Which results are given for C=CCN1CC[C@]23CC(=O)CC[C@H]2[C@H]1Cc1cccc(OC)c13 [Compound 4, 4-methoxy-N-allylmorphinan-6-one]?
**A.** effect on K+-evoked ACh release in frontal-cortex synaptosomes ([1]; 0.01 to 10 µM): did not influence ACh release; IC50 [2]: 1 µM; Ki (δ opioid receptors): 0.316 µM; IC50 [3]: > 0.01 µM; general locomotion in the open field (move distance, move time) (C57BL/6N female mice [4]; 0.1 µmol i.c.v.): did not influence; fraction of locomotor activity in the central zone (C57BL/6N female mice [4]; dose not given): did not influence; object recognition (memory) (C57BL/6N female mice [5]; 0.05 µmol i.c.v.): small impairment of memory; effect on scopolamine-induced impairment of object recognition (C57BL/6N female mice [5]; 0.05 µmol i.c.v.): abolished the scopolamine-induced impairment of object recognition; spontaneous alternation rate (C57BL/6N female mice [6]; 0.05 µmol i.c.v.): decreased spontaneous alternation rate; spontaneous alternation rate (C57BL/6N female mice [6]; lower (0.001; 0.01 and 0.025 µmol) or higher doses (0.1 µmol) i.c.v.): did not exert a significant effect; effect on scopolamine-induced reduction in alternation (C57BL/6N female mice [6]; scopolamine 0.033 µmol, compound 0.01 µmol i.c.v., not shown): ineffective; effect on scopolamine-induced reduction in alternation (C57BL/6N female mice [6]; scopolamine 0.033 µmol, compound 0.05 µmol i.c.v.): ameliorated

**Q.** With O=CN1CC[C@]23CC(=O)CC[C@H]2[C@H]1Cc1c(O)ccc(O)c13 [Compound 1, 1,4-dihydroxy-N-formylmorphinan-6-one] as the molecule, how does the “concentration of maximal effect on stimulation-evoked ACh release” value ([1]; 15 mM K+) read?
**A.** 50 µM

**Q.** What about the “influence of the nAChR antagonist mecamylamine on the compound-induced release” value ([1]; at the maximally effective concentration (1: 50 µM)) of the same molecule?
**A.** did not influence

**Q.** What about the “effect on stimulation-evoked ACh release” value ([1]; lower (0.1 and 1 µM) and higher concentrations (100 µM)) of the same molecule?
**A.** ineffective

**Q.** What about the IC50 [2] of the same molecule?
**A.** 105 µM

**Q.** What about the Ki (δ opioid receptors) of the same molecule?
**A.** > 10 µM

**Q.** And the “binding to opioid receptor δ (in words)” value (δ opioid receptors)?
**A.** does not bind

**Q.** What about the Ki (δ opioid receptors; read-out: Opioid binding affinities Ki δ receptor, [3H][Ile5,6]deltorphin II, rat brain membranes) of the same molecule?
**A.** > 10 µM

**Q.** What about the IC50 [3] of the same molecule?
**A.** > 10 µM

**Q.** What about the “relative center distance and move time” value (C57BL/6N female mice [4]; 0.01 µmol i.c.v.) of the same molecule?
**A.** had no effect

**Q.** And the “relative center distance and move time” value (C57BL/6N female mice [4]; 0.1 µmol i.c.v.)?
**A.** increased the relative center distance and move time significantly

**Q.** And the “general locomotion in the open field (move distance, move time)” value (C57BL/6N female mice [4]; 0.01 and 0.1 µmol i.c.v.)?
**A.** did not influence

**Q.** And the “object recognition (memory)” value (C57BL/6N female mice [5]; 0.01 µmol i.c.v.)?
**A.** did not influence memory

**Q.** What about the “object recognition (memory)” value (C57BL/6N female mice [5]; 0.1 µmol i.c.v.) of the same molecule?
**A.** significant impairment

**Q.** What about the “effect on scopolamine-induced impairment of object recognition” value (C57BL/6N female mice [5]; 0.01 µmol i.c.v.) of the same molecule?
**A.** abolished the scopolamine-induced impairment of object recognition

**Q.** And the spontaneous alternation rate (C57BL/6N female mice [6]; 0.01 and 0.1 µmol i.c.v.)?
**A.** did not influence alternation

**Q.** What about the “effect on scopolamine-increased running time” value (C57BL/6N female mice [6]; [7]) of the same molecule?
**A.** did not influence

**Q.** What about the “effect on scopolamine-induced reduction in alternation” value (C57BL/6N female mice [6]; [7]) of the same molecule?
**A.** abolished the cholinergic impairment of alternation
